According to patent publication US20240238424A1, “HETEROBIFUNCTIONAL COMPOUNDS AND METHODS OF TREATING DISEASE” (Halda Therapeutics OpCo, Inc., priority 2021, published 2024):

Tests used:
Type in all cases: cell-based
[1] = biological target: T1, GSPT1 (Homo sapiens, UniProt P15170+Q96SW2); assay: GSPT1 HiBit degradation assay; settings: HEK293 LgBiT cells expressing GSPT1_HiBiT, luminescence after 6 hours
T1 construct: host or cells: HEK293 LgBiT cell line
In short: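 HEK293 cells stably expressing LgBiT and GSPT1-HiBiT, seeded 18-24 h before dosing, were treated with titrated compound plus endurazine (0.5× final) at 37 °C. Luminescence loss after 6 h reflects GSPT1 degradation; DC50 is the concentration giving 50% degradation.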

[2] = tested on: U937 cells; assay: Cellular growth inhibition assay (CTG), U937 cells; settings: Homo sapiens, U-937, CellTiter-Glo 2.0, day-5
Experimental: (§1) Cells were seeded in Poly-D-lysine-treated 384-well white plates, with 25 μL cell suspension at 250 cells/well for continuous treatments, and 1000 cells/well for washout treatments. Plates were spun at 300×g for 3 minutes, and cells were cultured at 37° C. with 5% CO2 in a humidified tissue culture incubator.
(§2) After 24 hours, the test compounds were diluted with cell culture medium in 96 deep well plates. DMSO was used as a negative control. A 25 μL aliquot of compound-containing medium was added in each well, at a final top concentration of 10 μM or 30 μM test compound, with 3-fold dilutions. For washout assays, after 4 hours, cell medium with compound was removed, and the cells were washed with 75p L fresh medium. Plates were then spun at 300×g for 3 minutes and replaced with 50 μL fresh medium in each well. Plates were then spun at 300×g for 3 minutes again and cultured at 37° C. with 5% CO2.
(§3) At day-0 and day-5 of compound treatments, cell viability was quantified with CellTiter-Glo 2.0 (Promega). After equilibrating cell plates at room temperature for 30 minutes, 25 μL CellTiter-Glo 2.0 reagent was dispensed into each well (on top of 50 μL of cell culture). Plates were mixed on a shaker for 2 minutes at 500 rpm, followed by a 10-minute incubation at room temperature. Luminescence readings were measured with an EnVision Plate Reader. Data was normalized to DMSO treated day-0 cell wells. A four-parameter non-linear regression curve fit was applied to dose-response data in Prism to determine the half maximal growth inhibitory concentration (GI50) of each compound.

[3] = tested on: 293 mutant EGFR_T790M L858R Cells; assay: Cellular growth inhibition assay (CTG), 293 mutant EGFR_T790M L858R cells; settings: 293 mutant EGFR T790M L858R cells, CellTiter-Glo 2.0, day-5
Experimental: as §1, §2, §3

[4] = tested on: HeLa KRas G12C cells; assay: Cellular growth inhibition assay (CTG), HeLa KRas G12C cells; settings: Homo sapiens, CellTiter-Glo 2.0, day-5
Experimental: as §1, §2, §3

T1 sequence (P15170 whole entry): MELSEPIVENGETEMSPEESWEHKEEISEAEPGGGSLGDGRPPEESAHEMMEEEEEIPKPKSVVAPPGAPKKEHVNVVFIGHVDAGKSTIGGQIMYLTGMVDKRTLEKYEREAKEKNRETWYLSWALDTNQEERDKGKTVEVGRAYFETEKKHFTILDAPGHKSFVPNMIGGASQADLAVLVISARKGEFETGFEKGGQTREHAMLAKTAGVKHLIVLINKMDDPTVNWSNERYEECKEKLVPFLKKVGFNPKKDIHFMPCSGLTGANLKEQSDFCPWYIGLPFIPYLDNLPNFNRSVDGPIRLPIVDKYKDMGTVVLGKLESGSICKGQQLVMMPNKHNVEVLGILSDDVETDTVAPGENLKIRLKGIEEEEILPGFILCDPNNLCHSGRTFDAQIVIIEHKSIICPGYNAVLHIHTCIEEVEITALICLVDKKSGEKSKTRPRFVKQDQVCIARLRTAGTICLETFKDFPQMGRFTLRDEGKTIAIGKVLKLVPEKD
T1 sequence (Q96SW2 whole entry): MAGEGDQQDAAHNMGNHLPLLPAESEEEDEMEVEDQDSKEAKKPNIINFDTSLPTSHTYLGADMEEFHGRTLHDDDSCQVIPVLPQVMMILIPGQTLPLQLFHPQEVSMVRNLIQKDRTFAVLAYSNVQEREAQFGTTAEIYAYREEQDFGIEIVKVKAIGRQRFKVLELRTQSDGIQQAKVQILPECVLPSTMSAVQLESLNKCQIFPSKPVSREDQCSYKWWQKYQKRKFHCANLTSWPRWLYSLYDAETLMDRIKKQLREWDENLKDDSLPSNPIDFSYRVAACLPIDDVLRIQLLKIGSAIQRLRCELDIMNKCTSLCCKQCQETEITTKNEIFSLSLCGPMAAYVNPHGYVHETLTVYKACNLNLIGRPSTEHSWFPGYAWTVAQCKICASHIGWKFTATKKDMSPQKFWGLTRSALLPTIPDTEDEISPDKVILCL
T1 sequence (Q16531 whole entry partner): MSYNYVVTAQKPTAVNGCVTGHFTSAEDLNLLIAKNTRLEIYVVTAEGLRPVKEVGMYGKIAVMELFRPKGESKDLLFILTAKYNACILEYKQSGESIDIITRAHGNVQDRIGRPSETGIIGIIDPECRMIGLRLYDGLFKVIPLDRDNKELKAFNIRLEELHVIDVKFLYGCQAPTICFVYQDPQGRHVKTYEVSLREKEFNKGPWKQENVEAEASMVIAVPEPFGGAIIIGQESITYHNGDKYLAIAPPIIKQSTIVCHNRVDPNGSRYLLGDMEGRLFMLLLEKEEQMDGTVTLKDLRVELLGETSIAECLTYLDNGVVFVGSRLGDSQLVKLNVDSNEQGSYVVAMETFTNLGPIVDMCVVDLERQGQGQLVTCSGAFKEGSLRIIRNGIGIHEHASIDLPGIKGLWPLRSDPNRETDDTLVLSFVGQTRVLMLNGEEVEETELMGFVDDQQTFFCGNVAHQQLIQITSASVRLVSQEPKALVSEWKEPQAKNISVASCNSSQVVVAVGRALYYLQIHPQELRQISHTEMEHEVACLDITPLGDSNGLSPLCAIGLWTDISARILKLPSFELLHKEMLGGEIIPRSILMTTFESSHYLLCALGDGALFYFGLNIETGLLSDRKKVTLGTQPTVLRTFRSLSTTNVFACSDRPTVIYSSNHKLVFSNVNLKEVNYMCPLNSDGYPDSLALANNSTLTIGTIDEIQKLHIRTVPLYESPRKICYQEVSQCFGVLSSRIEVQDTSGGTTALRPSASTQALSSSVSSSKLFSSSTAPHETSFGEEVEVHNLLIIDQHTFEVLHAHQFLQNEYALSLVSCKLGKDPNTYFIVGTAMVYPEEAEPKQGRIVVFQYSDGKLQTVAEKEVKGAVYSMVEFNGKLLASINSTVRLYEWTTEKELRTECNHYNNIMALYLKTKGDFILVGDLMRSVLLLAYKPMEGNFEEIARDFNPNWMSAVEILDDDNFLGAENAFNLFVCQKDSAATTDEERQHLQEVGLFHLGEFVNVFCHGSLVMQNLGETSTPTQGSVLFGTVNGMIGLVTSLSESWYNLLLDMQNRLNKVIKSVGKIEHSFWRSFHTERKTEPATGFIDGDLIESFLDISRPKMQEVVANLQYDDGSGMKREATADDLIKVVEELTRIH

DC50 ([1]; Table 3) [nM]	GI50 [2] [nM]	DC50 ([1]; Table 3A) [nM]	GI50 [4] [nM]	Compound	GI50 [3] [nM]
–	–	< 250	–	C=CC(=O)NC1CN(c2nc(Nc3cn(CCOCCOCCOCCOCCOCCCCCc4cc(Cl)cc(NC(=O)NCc5ccc6c(c5)CN(C5CCC(=O)NC5=O)C6=O)c4)nc3OC)c3ncn(C)c3n2)C[C@H]1F (stereo partly shown) [Compound I-155]	100 to 1000
–	–	250 to 5000	–	COc1nn(C)cc1Nc1nc(N2CC(NC(=O)/C=C/CN(C)CCOCCOCCOCCCCCc3cc(Cl)cc(NC(=O)NCc4ccc5c(c4)CN(C4CCC(=O)NC4=O)C5=O)c3)[C@H](F)C2)nc2c1ncn2C (stereo partly shown) [Compound I-150]	1000 to 5000
–	–	250 to 5000	–	COc1cc(N(C)CCN(C)C)c(NC(=O)/C=C/CN(C)CCOCCOCCOCCOCCOCCCCCc2cc(Cl)cc(NC(=O)NCc3ccc4c(c3)CN(C3CCC(=O)NC3=O)C4=O)c2)cc1Nc1nccc(-c2cn(C)c3ccccc23)n1 (stereo not shown) [Compound I-151]	100 to 1000
–	–	250 to 5000	–	COc1cc(N(C)CCN(C)C)c(NC(=O)/C=C/CN(C)CCOCCOCCOCCCCCc2cc(Cl)cc(NC(=O)NCc3ccc4c(c3)CN(C3CCC(=O)NC3=O)C4=O)c2)cc1Nc1nccc(-c2cn(C)c3ccccc23)n1 (stereo not shown) [Compound I-145]	1000 to 5000
–	–	250 to 5000	–	C=CC(=O)Nc1cc(Nc2nccc(-c3cn(C)c4ccccc34)n2)c(OC)cc1N(C)CCN(C)CCOCCOCCOCCOCCOCCOCCOCCOCCOCCOCCOCCCCCc1cc(Cl)cc(NC(=O)NCc2ccc3c(c2)CN(C2CCC(=O)NC2=O)C3=O)c1 (stereo not shown) [Compound I-161]	1000 to 5000
–	–	250 to 5000	–	COc1cc(N(C)CCN(C)C)c(NC(=O)/C=C/CN(C)CCOCCOCCOCCOCCOCCOCCOCCOCCOCCCCCc2cc(Cl)cc(NC(=O)NCc3ccc4c(c3)CN(C3CCC(=O)NC3=O)C4=O)c2)cc1Nc1nccc(-c2cn(C)c3ccccc23)n1 (stereo not shown) [Compound I-132]	1000 to 5000
–	–	250 to 5000	–	C=CC(=O)Nc1cc(Nc2nccc(-c3cn(C)c4ccccc34)n2)c(OC)cc1N(C)CCN(C)CCOCCOCCOCCOCCOCCOCCOCCOCCOCCCCCc1cc(Cl)cc(NC(=O)NCc2ccc3c(c2)CN(C2CCC(=O)NC2=O)C3=O)c1 (stereo not shown) [Compound I-160]	100 to 1000
–	–	250 to 5000	–	COc1cc(N(C)CCN(C)C)c(NC(=O)/C=C/CN(C)CCOCCOCCOCCOCCOCCOCCOCCCCCc2cc(Cl)cc(NC(=O)NCc3ccc4c(c3)CN(C3CCC(=O)NC3=O)C4=O)c2)cc1Nc1nccc(-c2cn(C)c3ccccc23)n1 (stereo not shown) [Compound I-146]	1000 to 5000
–	–	> 10000	3000 to 10000	C=C(F)C(=O)N1CCN(c2nc(OC[C@@H]3CCCN3CCCOCCOCCOCCOCCOCCCCCc3cccc(NC(=O)NCc4ccc5c(c4)CN(C4CCC(=O)NC4=O)C5=O)n3)nc3c2CCN(c2cccc4cccc(Cl)c24)C3)C[C@@H]1CC#N (stereo partly shown) [Compound I-152]	–
–	–	250 to 5000	–	COc1nn(C)cc1Nc1nc(N2CC(NC(=O)/C=C/CN(C)CCOCCOCCOCCOCCOCCCCCc3cc(Cl)cc(NC(=O)NCc4ccc5c(c4)CN(C4CCC(=O)NC4=O)C5=O)c3)[C@H](F)C2)nc2c1ncn2C (stereo partly shown) [Compound I-159]	1000 to 5000

More lines, now with the values behind:

Compound	DC50 ([1]; Table 3) [nM]	GI50 [2] [nM]	DC50 ([1]; Table 3A) [nM]	GI50 [4] [nM]	GI50 [3] [nM]
CN(C/C=C/C(=O)N1CCC[C@@H](n2nc(-c3ccc(Oc4ccccc4)cc3)c3c(N)ncnc32)C1)CCOCCOCCOCCOCCCCCCCCc1cc(Cl)cc(NC(=O)NCc2ccc3c(c2)CN(C2CCC(=O)NC2=O)C3=O)c1 (stereo partly shown) [Compound I-67]	< 250	< 100	–	–	–
CN(C/C=C/C(=O)N1CCC([C@@H]2CCNc3c(C(N)=O)c(-c4ccc(Oc5ccccc5)cc4)nn32)CC1)CCOCCOCCOCCOCCOCCOCCOCCOCCCCCCCCc1cc(Cl)cc(NC(=O)NCc2ccc3c(c2)CN(C2CCC(=O)NC2=O)C3=O)c1 (stereo partly shown) [Compound I-76]	< 250	< 100	–	–	–
CN(C/C=C/C(=O)N1CCC[C@@H](n2nc(-c3ccc(Oc4ccccc4)cc3)c3c(N)ncnc32)C1)CCOCCOCCOCCOCCOCCOCCOCCOCCCCCCCCc1cc(Cl)cc(NC(=O)NCc2ccc3c(c2)CN(C2CCC(=O)NC2=O)C3=O)c1 (stereo partly shown) [Compound I-73]	< 250	< 100	–	–	–
Nc1ncnc2c1c(-c1ccc(Oc3ccccc3)cc1)nn2[C@@H]1CCCN(C(=O)/C=C/COCCOCCOCCOCCOCCOCCOCCOc2cc(Cl)cc(NC(=O)NCc3ccc4c(c3)CN(C3CCC(=O)NC3=O)C4=O)c2)C1 (stereo partly shown) [Compound I-30]	–	100 to 1000	–	–	–
C=CC(=O)NC1CN(c2nc(Nc3cn(CCOCCOCCOCCOCCOCCOCCOCCCCCc4cc(Cl)cc(NC(=O)NCc5ccc6c(c5)CN(C5CCC(=O)NC5=O)C6=O)c4)nc3OC)c3ncn(C)c3n2)C[C@H]1F (stereo partly shown) [Compound I-130]	–	–	250 to 5000	–	100 to 1000
COc1cc(N2CCN(C(=O)COCCOCCOCCOCCOCCOCCOCCCCCc3cc(Cl)cc(NC(=O)NCc4ccc5c(c4)CN(C4CCC(=O)NC4=O)C5=O)c3)CC2)ccc1Nc1ncc(Cl)c(Nc2ccccc2P(C)(C)=O)n1 (stereo not shown) [Compound I-120]	–	–	250 to 5000	–	1000 to 5000
C=CC(=O)Nc1cc(Nc2nccc(-c3cn(C)c4ccccc34)n2)c(OC)cc1N(C)CCN(C)CCOCCOCCOCCOCCOCCCCCc1cc(Cl)cc(NC(=O)NCc2ccc3c(c2)CN(C2CCC(=O)NC2=O)C3=O)c1 (stereo not shown) [Compound I-125]	–	–	250 to 5000	–	1000 to 5000
C=CC(=O)N[C@@H]1CN(c2nc(Nc3cn(CCOCCOCCOCCCCCc4cc(Cl)cc(NC(=O)NCc5ccc6c(c5)CN(C5CCC(=O)NC5=O)C6=O)c4)nc3OC)c3ncn(C)c3n2)C[C@H]1F (stereo partly shown) [Compound I-122]	–	–	< 250	–	100 to 1000
C=CC(=O)Nc1cc(Nc2nccc(-c3cn(C)c4ccccc34)n2)c(OC)cc1N(C)CCN(C)CCOCCOCCOCCCCCc1cc(Cl)cc(NC(=O)NCc2ccc3c(c2)CN(C2CCC(=O)NC2=O)C3=O)c1 (stereo not shown) [Compound I-102]	–	–	250 to 5000	–	1000 to 5000
Nc1ncnc2c1c(-c1ccc(Oc3ccccc3)cc1)nn2[C@@H]1CCCN(C(=O)/C=C/COCCOCCOCCOCCOCCOCCOCCOCCOCCOCCOCCOc2cc(Cl)cc(NC(=O)NCc3ccc4c(c3)CN(C3CCC(=O)NC3=O)C4=O)c2)C1 (stereo partly shown) [Compound I-32]	–	1000 to 5000	–	–	–
C=CC(=O)N1CCN(c2nc(NCCC(=O)N(C)CCOCCOCCOCCOCCOCCOCCOCCOCCc3cc(Cl)cc(NC(=O)NCc4ccc5c(c4)CN(C4CCC(=O)NC4=O)C5=O)c3)nc3c(F)c(-c4cc(O)cc5ccccc45)c(Cl)cc23)CC1 (stereo not shown) [Compound I-18, N-[2-[2-[2-[2-[2-[2-[2-[2-[2-[3-chloro-5-[[2-(2,6-dioxo-3-piperidyl)-1-oxo-isoindolin-5-yl]methylcarbamoylamino]phenyl]ethoxy]ethoxy]ethoxy]ethoxy]ethoxy]ethoxy]ethoxy]ethoxy]ethyl]-3-[[6-chloro-8-fluoro-7-(3-hydroxy-1-naphthyl)-4-(4-prop-2-enoylpiperazin-1-yl)quinazolin-2-yl]amino]-N-methyl-propanamide]	> 10000	–	–	> 10000	–
C=C(F)C(=O)N1CCN(c2nc(OC[C@@H]3CCCN3CCOCCOCCOCCOCCCCCCCCc3cc(Cl)cc(NC(=O)NCc4ccc5c(c4)CN(C4CCC(=O)NC4=O)C5=O)c3)nc3c2CCN(c2cccc4cccc(Cl)c24)C3)C[C@@H]1CC#N (stereo partly shown) [Compound I-40]	< 250	–	–	< 1000	–
C=CC(=O)N1CCN(c2nc(NCCCCCCCCc3cccc4c3CN(C3CCC(=O)NC3=O)C4=O)nc3c(F)c(-c4cc(O)cc5ccccc45)c(Cl)cc23)CC1 (stereo not shown) [Compound I-8, 3-(4-(8-((4-(4-acryloylpiperazin-1-yl)-6-chloro-8-fluoro-7-(3-hydroxynaphthalen-1-yl)quinazolin-2-yl)amino)octyl)-1-oxoisoindolin-2-yl)piperidine-2,6-dione]	> 10000	–	–	> 10000	–
C=C(F)C(=O)N1CCN(c2nc(OC[C@@H]3CCCN3CCOCCOCCOCCOCCOCCOCCOCCOCCCCCCCCCCCCCCc3cc(Cl)cc(NC(=O)NCc4ccc5c(c4)CN(C4CCC(=O)NC4=O)C5=O)c3)nc3c2CCN(c2cccc4cccc(Cl)c24)C3)C[C@@H]1CC#N (stereo partly shown) [Compound I-51]	250 to 5000	–	–	< 1000	–
C=C(F)C(=O)N1CCN(c2nc(OC[C@@H]3CCCN3CCOCCOCCOCCOCCOCCOCCOCCOCCOCCOCCOCCOCCCCCCCCc3cc(Cl)cc(NC(=O)NCc4ccc5c(c4)CN(C4CCC(=O)NC4=O)C5=O)c3)nc3c2CCN(c2cccc4cccc(Cl)c24)C3)C[C@@H]1CC#N (stereo partly shown) [Compound I-46]	< 250	–	–	< 1000	–
COc1nn(C)cc1Nc1nc(N2CC(NC(=O)/C=C/CN(C)CCOCCOCCOCCOCCOCCOCCOCCOCCOCCCCCc3cc(Cl)cc(NC(=O)NCc4ccc5c(c4)CN(C4CCC(=O)NC4=O)C5=O)c3)[C@H](F)C2)nc2c1ncn2C (stereo partly shown) [Compound I-131]	–	–	250 to 5000	–	1000 to 5000
C=C(F)C(=O)N1CCN(c2nc(OC[C@@H]3CCCN3CCOCCOCCOCCOCCCCCCCCCCCCCCc3cc(Cl)cc(NC(=O)NCc4ccc5c(c4)CN(C4CCC(=O)NC4=O)C5=O)c3)nc3c2CCN(c2cccc4cccc(Cl)c24)C3)C[C@@H]1CC#N (stereo partly shown) [Compound I-49]	250 to 5000	–	–	> 10000	–
